The text below walks through data of publication PMC6009906, “A new nitrobenzoxadiazole-based GSTP1-1 inhibitor with a previously unheard of mechanism of action and high stability” (Journal of Enzyme Inhibition and Medicinal Chemistry, 2017).

Experiment [1] deals with T1, GSTP1-1 (glutathione transferase P1-1) (Homo sapiens, UniProt P09211). The experiment is described as follows: CDNB-GSH conjugation assay in buffer A, pH […] °C (partial, max […] inhibition; K iapp […] without Triton); also intrinsic protein fluorescence quenching with and without GSH. Format: biochemical.
Experiment [2] has as its target T1, GSTP1-1 (glutathione transferase P1-1). As to the kind of experiment: CDNB-GSH conjugation assay in buffer B (no detergent), pH […] °C. The experiment is classed as biochemical.

A word on the Ki: it is the equilibrium dissociation constant of an inhibitor or competing ligand from its target.

T1 sequence (P09211 2-210): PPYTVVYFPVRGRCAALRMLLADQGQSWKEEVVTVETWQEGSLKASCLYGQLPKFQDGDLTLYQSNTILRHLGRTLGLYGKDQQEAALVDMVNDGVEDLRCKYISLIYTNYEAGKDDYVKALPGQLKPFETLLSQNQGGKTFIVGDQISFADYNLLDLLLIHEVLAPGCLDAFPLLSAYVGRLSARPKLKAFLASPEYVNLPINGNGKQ

Consider `O=C(OCCCCCCSc1ccc([N+](=O)[O-])c2nonc12)c1ccccc1` [compound 2, 6-((7 nitrobenzo[c][1,2,5]oxadiazol-4-yl)thio)hexyl benzoate], for which, in experiment [1], the Ki came to 3.9 µM.

`CC(=O)OCCCCCCSc1ccc([N+](=O)[O-])c2nonc12` [compound 3, MC2752] came in with a Ki in experiment [2] of 600 nM.
